Results reported in PubChem BioAssay AID248 (DTP/NCI, 2004).
“And” between values parts separate entries of the source, which are not always exact repeats. Equal values may be shown once. Toxic doses and inconclusive results are not listed. Cut-off read from the data, not from the text of the source: active = T/C of 150% or more; inactive = T/C below 125%.

Tested on: L1210 leukemia ip in BDF1 mice, survival T/C
Test: NCI In Vivo Anticancer Drug Screen. Data for tumor model L1210 Leukemia (intraperitoneal) in B6D2F1 (BDF1) mice
Details: endpoint: mean survival time, higher = longer survival
In short: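 Each compound was tested against a transplantable tumor grown in mice. The endpoint was survival, with treated animals benchmarked against vehicle controls as a simple ratio.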

[1] = dose: 100.0 mg/kg/injection, schedule: Q04DX003 (ip), vehicle: Klucel (hydroxypropylcellulose) (HPC)
[2] = dose: 400.0 mg/kg/injection, schedule: Q04DX003 (ip), vehicle: Klucel (hydroxypropylcellulose) (HPC)
[3] = dose: 75.0 mg/kg/injection, schedule: Q01DX001 (ip), vehicle: saline
[4] = dose: 100.0 mg/kg/injection, schedule: Q01DX009 (ip), vehicle: saline
[5] = dose: 100.0 mg/kg/injection, schedule: Q04DX003 (ip), vehicle: saline
[6] = dose: 200.0 mg/kg/injection, schedule: Q04DX003 (ip), vehicle: saline
[7] = dose: 100.0 mg/kg/injection, schedule: Q04DX003 (ip), vehicle: saline with Tween-80
[8] = dose: 200.0 mg/kg/injection, schedule: Q04DX003 (ip), vehicle: saline with Tween-80
[9] = dose: 400.0 mg/kg/injection, schedule: Q04DX003 (ip), vehicle: saline with Tween-80
[10] = dose: 100.0 mg/kg/injection, schedule: Q01DX001 (ip), vehicle: saline
[11] = dose: 200.0 mg/kg/injection, schedule: Q01DX001 (ip), vehicle: saline
[12] = dose: 400.0 mg/kg/injection, schedule: Q01DX001 (ip), vehicle: saline
[13] = dose: 100.0 mg/kg/injection, schedule: Q01DX009 (ip), vehicle: saline with Tween-80
[14] = dose: 200.0 mg/kg/injection, schedule: Q01DX009 (ip), vehicle: saline with Tween-80

Measured: T/C

Nc1ncnc(NC2CCCCC2)n1
inactive: dose: 6.25 mg/kg/injection, schedule: Q01DX009 (ip), vehicle: Klucel (hydroxypropylcellulose) (HPC) 100 % of control | dose: 12.5 mg/kg/injection, schedule: Q01DX009 (ip), vehicle: Klucel (hydroxypropylcellulose) (HPC) 94 % of control | dose: 25.0 mg/kg/injection, schedule: Q01DX009 (ip), vehicle: Klucel (hydroxypropylcellulose) (HPC) 97 % of control and 98 % of control | dose: 50.0 mg/kg/injection, schedule: Q01DX009 (ip), vehicle: Klucel (hydroxypropylcellulose) (HPC) 111 % of control | [1] 91 % of control | [2] 98 % of control

O=NN(Cc1cnc2[nH]c(=O)[nH]c(=O)c2n1)c1ccc(C(=O)NC(CCC(=O)O)C(=O)O)cc1 (stereo not given)
inactive: dose: 3.13 mg/kg/injection, schedule: Q01DX009 (ip), vehicle: water 100 % of control | dose: 6.25 mg/kg/injection, schedule: Q01DX009 (ip), vehicle: water 102 % of control | dose: 12.5 mg/kg/injection, schedule: Q01DX009 (ip), vehicle: water 88 % of control | dose: 25.0 mg/kg/injection, schedule: Q01DX009 (ip), vehicle: water 98 % of control | dose: 50.0 mg/kg/injection, schedule: Q01DX009 (ip), vehicle: water 93 % of control

COc1cc([N+](=O)[O-])ccc1S(=O)(=O)F
inactive: dose: 100.0 mg/kg/injection, schedule: Q01DX009 (ip), vehicle: gum acacia 95 % of control | dose: 200.0 mg/kg/injection, schedule: Q01DX009 (ip), vehicle: gum acacia 98 % of control | dose: 400.0 mg/kg/injection, schedule: Q01DX009 (ip), vehicle: gum acacia 90 % of control

N#CCc1ccc(Cl)c(Cl)c1
inactive: dose: 5.0 mg/kg/injection, schedule: Q01DX001 (ip), vehicle: saline 100 % of control | dose: 10.0 mg/kg/injection, schedule: Q01DX001 (ip), vehicle: saline 105 % of control | dose: 20.0 mg/kg/injection, schedule: Q01DX001 (ip), vehicle: saline 95 % of control | dose: 40.0 mg/kg/injection, schedule: Q01DX001 (ip), vehicle: saline 95 % of control | dose: 80.0 mg/kg/injection, schedule: Q01DX001 (ip), vehicle: saline 98 % of control

O=S(=O)(O)c1ccc2c(ccc3ccccc32)c1
inactive: [3] 96 % of control

CC(CCc1ccc(O)cc1)OC=O (stereo not given)
inactive: dose: 222.0 mg/kg/injection, schedule: Q01DX Z (ip), vehicle: saline 104 % of control | dose: 333.0 mg/kg/injection, schedule: Q01DX Z (ip), vehicle: saline 91 % of control

CCCCN=C=NCCCC
inactive: dose: 0.05 mg/kg/injection, schedule: Q01DX Z (ip), vehicle: saline 96 % of control | dose: 0.08 mg/kg/injection, schedule: Q01DX Z (ip), vehicle: saline 90 % of control | dose: 0.12 mg/kg/injection, schedule: Q01DX Z (ip), vehicle: saline 104 % of control | dose: 100.0 mg/kg/injection, schedule: Q01DX001 (ip), vehicle: Klucel (hydroxypropylcellulose) (HPC) 93 % of control | dose: 200.0 mg/kg/injection, schedule: Q01DX001 (ip), vehicle: Klucel (hydroxypropylcellulose) (HPC) 93 % of control

CC/C(CC(C)CC)=N\O (stereo not given)
inactive: [4] 101 % of control | [5] 93 % of control | dose: 200.0 mg/kg/injection, schedule: Q01DX009 (ip), vehicle: saline 101 % of control | [6] 98 % of control | dose: 400.0 mg/kg/injection, schedule: Q01DX009 (ip), vehicle: saline 101 % of control | dose: 400.0 mg/kg/injection, schedule: Q04DX003 (ip), vehicle: saline 91 % of control

CC(=O)OCC1OC(n2cnc(C(N)=O)c2N)C(OC(C)=O)C1OC(C)=O (stereo not given)
inactive: dose: 100.0 mg/kg/injection, schedule: Q01DX005 (ip), vehicle: saline 95 % of control | dose: 200.0 mg/kg/injection, schedule: Q01DX005 (ip), vehicle: saline 96 % of control

O=[N+]([O-])c1ccc2nc(-c3ccc(S(=O)(=O)F)cc3)cc(Cl)c2c1
inactive: [7] 98 % of control | [8] 106 % of control | [9] 98 % of control

Cc1c(C=NCCNCCN=Cc2[nH]c(=S)[nH]c(=O)c2C)[nH]c(=S)[nH]c1=O
inactive: dose: 44.0 mg/kg/injection, schedule: Q04DX003 (ip), vehicle: saline with Tween-80 97 % of control and 98 % of control | dose: 66.0 mg/kg/injection, schedule: Q04DX003 (ip), vehicle: saline with Tween-80 106 % of control and 108 % of control | [7] 103 % of control and 110 % of control | dose: 150.0 mg/kg/injection, schedule: Q04DX003 (ip), vehicle: saline with Tween-80 98 % of control and 104 % of control | [8] 110 % of control | [9] 104 % of control

[C](#Cc1ccccc1)[Hg][C]#Cc1ccccc1
inactive: [1] 103 % of control | dose: 200.0 mg/kg/injection, schedule: Q04DX003 (ip), vehicle: Klucel (hydroxypropylcellulose) (HPC) 94 % of control | [2] 96 % of control

COCCCNc1ncnc2[nH]ncc12
inactive: dose: 15.0 mg/kg/injection, schedule: Q01DX015 (ip), vehicle: saline 95 % of control | dose: 30.0 mg/kg/injection, schedule: Q01DX015 (ip), vehicle: saline 101 % of control | dose: 50.0 mg/kg/injection, schedule: Q04DX003 (ip), vehicle: saline 96 % of control | dose: 60.0 mg/kg/injection, schedule: Q01DX015 (ip), vehicle: saline 97 % of control | [10] 106 % of control | [5] 98 % of control | dose: 120.0 mg/kg/injection, schedule: Q01DX015 (ip), vehicle: saline 110 % of control | [11] 106 % of control | [6] 100 % of control | [12] 116 % of control

O=C(O)C1c2ccccc2-c2c(-c3ccccc3)cccc21 (stereo not given)
inactive: [7] 87 % of control | [8] 91 % of control | [9] 103 % of control

COc1cccc(-c2ccc(N=N/C(=N/Nc3ccccc3)c3ccccc3)c(OC)c2)c1
inactive: dose: 50.0 mg/kg/injection, schedule: Q01DX001 (ip), vehicle: saline 101 % of control | [10] 95 % of control | [11] 97 % of control | [12] 89 % of control

CCOc1ccc(Nc2cccc(O)c2)cc1
inactive: dose: 50.0 mg/kg/injection, schedule: Q01DX009 (ip), vehicle: saline with Tween-80 95 % of control | [13] 103 % of control | [14] 95 % of control

Nc1ccc(OCCNS(=O)(=O)c2cccc(S(=O)(=O)F)c2)c(Cl)c1
inactive: dose: 50.0 mg/kg/injection, schedule: Q01DX009 (ip), vehicle: saline 97 % of control | [4] 102 % of control | [5] 97 % of control | [6] 97 % of control

CN(C(=O)c1cc([N+](=O)[O-])ccc1O)c1ccccc1
inactive: [10] 98 % of control | [11] 95 % of control | [12] 101 % of control

Cc1ccc([P+](Cc2ccccc2)(c2ccccc2)c2cccc3ccccc23)cc1 (stereo not given)
inactive: dose: 15.0 mg/kg/injection, schedule: Q01DX001 (ip), vehicle: carboxymethylcellulose (CMC) 94 % of control | dose: 30.0 mg/kg/injection, schedule: Q01DX001 (ip), vehicle: carboxymethylcellulose (CMC) 93 % of control

Cc1cccc(C2CCCCC2OS(C)(=O)=O)c1 (stereo not given)
inactive: dose: 100.0 mg/kg/injection, schedule: Q01DX001 (ip), vehicle: carboxymethylcellulose (CMC) 101 % of control | dose: 200.0 mg/kg/injection, schedule: Q01DX001 (ip), vehicle: carboxymethylcellulose (CMC) 108 % of control | dose: 400.0 mg/kg/injection, schedule: Q01DX001 (ip), vehicle: carboxymethylcellulose (CMC) 95 % of control

CCOP(=S)(OCC)OP(=S)(OCC)OCC
inactive: dose: 1.0 mg/kg/injection, schedule: Q01DX009 (ip), vehicle: other 108 % of control | dose: 1.0 mg/kg/injection, schedule: Q04DX003 (ip), vehicle: other 100 % of control | dose: 2.0 mg/kg/injection, schedule: Q01DX009 (ip), vehicle: other 90 % of control | dose: 2.0 mg/kg/injection, schedule: Q04DX003 (ip), vehicle: other 97 % of control | dose: 4.0 mg/kg/injection, schedule: Q04DX003 (ip), vehicle: other 100 % of control

C1COC(N2CC3CCC(CC3)C2)=N1
inactive: [3] 96 % of control | dose: 150.0 mg/kg/injection, schedule: Q01DX001 (ip), vehicle: saline 105 % of control

Cn1nc(C(=O)O)c(=O)[nH]c1=S
inactive: dose: 100.0 mg/kg/injection, schedule: Q01DX Z (ip), vehicle: methylcellulose (MC) 97 % of control | dose: 200.0 mg/kg/injection, schedule: Q01DX Z (ip), vehicle: methylcellulose (MC) 92 % of control

Cn1nc(NC(=O)C(F)(F)F)c2ncc(-c3ccccc3)nc21
inactive: [13] 96 % of control | [14] 96 % of control
